According to ChEMBL document CHEMBL6078677, “Discovery and optimization of tetrahydroacridine derivatives as a novel class of antibiotics against multidrug-resistant Gram-positive pathogens by targeting type I signal peptidase and disrupting bacterial membrane” (Eur J Med Chem, 2025):
In brackets after ≈: the same amount, converted by molar mass.

Tests used:
Format in all cases: functional
Staphylococcus aureus = assay: Antimicrobial activity against Staphylococcus aureus ATCC 29213 assessed as inhibition of visible growth of bacteria incubated for 20 hrs by broth microdilution method
Enterococcus faecium = assay: Antimicrobial activity against Enterococcus faecium QF31 harboring erythromycin resistance rRNA methylase B and chloramphenicol-florfenicol resistance methylase assessed as inhibition of visible growth of bacteria incubated for 20 hrs by broth microdilution method
Streptococcus suis = assay: Antimicrobial activity against Streptococcus suis P1/7 assessed as inhibition of visible growth of bacteria incubated for 20 hrs by broth microdilution method
Enterococcus faecalis = assay: microbe, parasite or virus in culture; conditions: SF23-1, time 20 hrs
Description: Antimicrobial activity against Enterococcus faecalis SF23-1 harboring erythromycin-resistance rRNA methylase B, tetracycline efflux protein L and chloramphenicol-florfenicol resistance methylase assessed as inhibition of visible growth of bacteria incubated for 20 hrs by broth microdilution method

Row | SMILES | MIC (Staphylococcus aureus) [µg/mL] | MIC (Enterococcus faecium) [µg/mL] | MIC (Streptococcus suis) [µg/mL] | MIC (Enterococcus faecalis) [µg/mL]
1 | CC1(C)C/C(=C\c2ccc(-c3ccc(Cl)c(C(F)(F)F)c3)o2)c2nc3ccccc3c(C(=O)O)c2C1 | 32 (≈ 62.5 µM) | 8 (≈ 15.6 µM) | 32 (≈ 62.5 µM) | 4 (≈ 7.81 µM)
2 | FC(F)(F)c1cc(-c2ccc(/C=C3\CCCc4c3nc3ccccc3c4Cl)o2)ccc1Cl | > 64 | 64 (≈ 135 µM) | > 64 | > 64
3 | O=C(O)C1=c2ccccc2=NC2/C(=C/c3cccc(-c4ccc(Cl)c(C(F)(F)F)c4)c3)CCC12 (stereo not drawn) | > 64 | > 64 | > 64 | > 64
4 | O=C(O)c1c2c(nc3ccccc13)/C(=C/c1ccc(-c3ccc(Cl)cc3)o1)CCC2 | 16 (≈ 38.5 µM) | 16 (≈ 38.5 µM) | 32 (≈ 76.9 µM) | > 64
5 | CC1(C)C/C(=C\c2ccc(-c3cccc(Cl)c3Cl)o2)c2nc3ccccc3c(C(=O)O)c2C1 | 16 (≈ 33.4 µM) | 8 (≈ 16.7 µM) | > 64 | 8 (≈ 16.7 µM)
6 | O=C(O)c1c2c(nc3ccccc13)/C(=C/c1ccc(-c3cccc(Cl)c3)o1)CCC2 | 16 (≈ 38.5 µM) | 16 (≈ 38.5 µM) | 16 (≈ 38.5 µM) | > 64
7 | CC1C/C(=C\c2ccc(-c3ccc(Cl)cc3)o2)c2nc3ccccc3c(C(=O)O)c2C1 (racemic) | 8 (≈ 18.6 µM) | 16 (≈ 37.2 µM) | 32 (≈ 74.4 µM) | > 64
8 | COc1ccc(-c2ccc(/C=C3\CC(C)Cc4c3nc3ccccc3c4C(=O)O)o2)cc1 (racemic) | > 64 | 16 (≈ 37.6 µM) | 32 (≈ 75.2 µM) | > 64
9 | CC1C/C(=C\c2ccc(-c3ccc(Cl)c(C(F)(F)F)c3)o2)c2nc3ccccc3c(C(=O)O)c2C1 (racemic) | 2 (≈ 4.02 µM) | 8 (≈ 16.1 µM) | 32 (≈ 64.3 µM) | 8 (≈ 16.1 µM)
10 | CC1C/C(=C\c2ccc(-c3cccc(Cl)c3Cl)o2)c2nc3ccccc3c(C(=O)O)c2C1 (racemic) | 2 (≈ 4.31 µM) | 8 (≈ 17.2 µM) | 64 (≈ 138 µM) | 8 (≈ 17.2 µM)
11 | CC1C/C(=C\c2ccc(-c3cccc(Cl)c3Cl)cc2)c2nc3ccccc3c(C(=O)O)c2C1 (racemic) | 2 (≈ 4.22 µM) | 8 (≈ 16.9 µM) | > 64 | 8 (≈ 16.9 µM)
12 | CC1C/C(=C\c2ccc(-c3ccc(Cl)c(C(F)(F)F)c3)o2)c2nc3ccccc3c(C(=O)N3CCN(C)CC3)c2C1 (racemic) | > 64 | > 64 | > 64 | > 64
13 | CC1C/C(=C\c2ccc(-c3ccc(Cl)c(C(F)(F)F)c3)nc2)c2nc3ccccc3c(C(=O)O)c2C1 (racemic) | 4 (≈ 7.86 µM) | 8 (≈ 15.7 µM) | > 64 | 8 (≈ 15.7 µM)
14 | CC1C/C(=C\c2cccc(-c3ccc(Cl)c(C(F)(F)F)c3)c2)c2nc3cc(N4CCOCC4)ccc3c(C(=O)O)c2C1 (racemic) | 8 (≈ 13.5 µM) | 4 (≈ 6.74 µM) | 8 (≈ 13.5 µM) | 32 (≈ 54 µM)
15 | CC1C/C(=C\c2cccc(-c3ccc(Cl)c(C(F)(F)F)c3)c2)c2nc3cc(N4CCN(C)CC4)ccc3c(C(=O)O)c2C1 (racemic) | 16 (≈ 26.4 µM) | 8 (≈ 13.2 µM) | 8 (≈ 13.2 µM) | 8 (≈ 13.2 µM)
16 | CC1C/C(=C\c2cccc(-c3ccc(Cl)c(C(F)(F)F)c3)c2)c2nc3ccccc3c(C(N)=O)c2C1 (racemic) | > 64 | > 64 | > 64 | > 64
17 | CC1C/C(=C\c2ccco2)c2nc3ccccc3c(C(=O)O)c2C1 (racemic) | > 64 | 16 (≈ 50.1 µM) | 32 (≈ 100 µM) | > 64
18 | COc1ccc2nc3c(c(C(=O)O)c2c1)CC(C)C/C3=C\c1ccc(-c2ccc(Cl)c(C(F)(F)F)c2)cc1 (racemic) | 4 (≈ 7.44 µM) | 4 (≈ 7.44 µM) | > 64 | 4 (≈ 7.44 µM)
19 | Cc1ccc(-c2ccc(/C=C3\CC(C)Cc4c3nc3ccccc3c4C(=O)O)o2)c(Cl)c1 (racemic) | 4 (≈ 9.01 µM) | 16 (≈ 36 µM) | > 64 | 8 (≈ 18 µM)

Row | SMILES | MIC (Staphylococcus aureus) [µg/mL] | MIC (Enterococcus faecium) [µg/mL] | MIC (Streptococcus suis) [µg/mL] | MIC (Enterococcus faecalis) [µg/mL]
20 | COc1ccc2nc3c(c(C(=O)O)c2c1)CC(C)C/C3=C\c1ccc(-c2ccc(Cl)c(C(F)(F)F)c2)o1 (racemic) | 32 (≈ 60.6 µM) | > 64 | 64 (≈ 121 µM) | 64 (≈ 121 µM)
21 | CC1C/C(=C\c2ccc(-c3ccc([N+](=O)[O-])cc3)o2)c2nc3ccccc3c(C(=O)O)c2C1 (racemic) | 64 (≈ 145 µM) | 64 (≈ 145 µM) | > 64 | > 64
22 | CCCCCCCCc1ccc(-c2ccc(/C=C3\CC(C)Cc4c3nc3ccc(OC)cc3c4C(=O)O)cc2)cc1 (racemic) | > 64 | 8 (≈ 14.6 µM) | 32 (≈ 58.4 µM) | 16 (≈ 29.2 µM)
23 | CC1C/C(=C\c2ncc([N+](=O)[O-])n2C)c2nc3ccccc3c(C(=O)O)c2C1 (racemic) | > 64 | > 64 | > 64 | > 64
24 | CC1C/C(=C\c2cccc(-c3ccc(Cl)c(C(F)(F)F)c3)c2)c2nc3ccc(O)cc3c(C(=O)O)c2C1 (racemic) | 8 (≈ 15.3 µM) | 8 (≈ 15.3 µM) | 4 (≈ 7.63 µM) | 16 (≈ 30.5 µM)
25 | CC1C/C(=C\c2cccc(-c3ccc(Cl)c(C(F)(F)F)c3)c2)c2nc3ccccc3c(C(=O)O)c2C1 (racemic) | 2 (≈ 3.94 µM) | 4 (≈ 7.87 µM) | > 64 | 4 (≈ 7.87 µM)
26 | CC1C/C(=C\c2nc(-c3ccc(Cl)c(C(F)(F)F)c3)cs2)c2nc3ccccc3c(C(=O)O)c2C1 (racemic) | 16 (≈ 31.1 µM) | 32 (≈ 62.1 µM) | 64 (≈ 124 µM) | 16 (≈ 31.1 µM)
27 | CC1C/C(=C\c2ccc(-c3c(Cl)cc(C(F)(F)F)cc3Cl)cc2)c2nc3ccccc3c(C(=O)O)c2C1 (racemic) | 4 (≈ 7.37 µM) | 8 (≈ 14.7 µM) | > 64 | 8 (≈ 14.7 µM)
28 | CC1C/C(=C\c2cccc(-c3cccc(Cl)c3Cl)c2)c2nc3ccccc3c(C(=O)O)c2C1 (racemic) | 4 (≈ 8.43 µM) | 8 (≈ 16.9 µM) | > 64 | 8 (≈ 16.9 µM)
29 | Cc1cc(/C=C2\CC(C)Cc3c2nc2ccccc2c3C(=O)O)cc(C)c1Oc1ccc([N+](=O)[O-])cc1 (racemic) | 4 (≈ 8.09 µM) | 8 (≈ 16.2 µM) | > 64 | 16 (≈ 32.4 µM)
30 | COc1ccc2nc3c(c(C(=O)O)c2c1)CC(C)C/C3=C\c1ccc(Oc2c(Cl)cc(N)cc2Cl)cc1 (racemic) | 4 (≈ 7.47 µM) | 8 (≈ 14.9 µM) | 64 (≈ 120 µM) | 16 (≈ 29.9 µM)
31 | CCCCCCc1ccc(-c2ccc(/C=C3\CC(C)Cc4c3nc3ccc(OC)cc3c4C(=O)O)cc2)cc1 (racemic) | 16 (≈ 30.8 µM) | 4 (≈ 7.7 µM) | 32 (≈ 61.6 µM) | 8 (≈ 15.4 µM)
32 | Cc1cc(/C=C2\CC(C)Cc3c2nc2ccccc2c3C(=O)O)cc(C)c1O (racemic) | > 64 | > 64 | > 64 | > 64
33 | CC1C/C(=C\c2ccc(-c3ccc(Cl)c(Cl)c3)o2)c2nc3ccccc3c(C(=O)O)c2C1 (racemic) | 8 (≈ 17.2 µM) | 16 (≈ 34.5 µM) | > 64 | 8 (≈ 17.2 µM)
34 | CC1C/C(=C\c2cccc(-c3ccc(Cl)c(C(F)(F)F)c3)c2)c2nc3ccccc3cc2C1 (racemic) | > 64 | > 64 | > 64 | > 64
35 | CC1C/C(=C\c2cc3ccc(Br)cc3s2)c2nc3ccccc3c(C(=O)O)c2C1 (racemic) | 16 (≈ 34.5 µM) | 64 (≈ 138 µM) | 64 (≈ 138 µM) | 16 (≈ 34.5 µM)
36 | COc1ccc2nc3c(c(C(=O)O)c2c1)CC(C)C/C3=C\c1cccc(NC(=O)c2cccc(Cl)c2Cl)c1 (racemic) | > 64 | > 64 | > 64 | > 64
37 | CC1C/C(=C\c2ccc(-c3c(Cl)cc(Cl)cc3Cl)cc2)c2nc3ccccc3c(C(=O)O)c2C1 (racemic) | 2 (≈ 3.93 µM) | 8 (≈ 15.7 µM) | > 64 | 4 (≈ 7.86 µM)
